According to patent US20050187581A1, “Methods of treating disorders with electric fields” (priority 2000, published 2005):

Columns and labels:
mouse splenocytes = test: [Ca^2+]c-high cells in lectin-stimulated mouse splenocytes, fluo-3 flow cytometry; assay type: cell-based, BALB/c mice
Protocol: In order to avoid contact of the cells and the lower electrode, polycarbonate membrane (Isopore, MILLIPORE, MA USA) was placed between the dish and the insert. Approximately 1 ml of the cell suspension was poured into culture well/space and covered with a lid.
Female BALB/c mice, 4-7 wk old obtained from CLEA Inc. (Tokyo, Japan) maintained in a conventional animal house equipped with clean air-filtering device were splenectomized under anesthesia, and cell suspensions of splenocytes were prepared. To examine cell viability, the cells were cultivated in Dulbecco's modified Eagle's medium (SIGMA, MO, USA) supplemented with 10% fetal bovine serum (FSB). The cells were maintained in Hank's balanced salt solution (HBSS) (SIGMA, MO, USA) during examination for [Ca^2+]c which was carried out within 4 hr after cell preparation. Cells were stored at 4 degree C. prior to use.
Splenocytes (10^6 cells/ml) were incubated for 20 min at 37 degrees C. in HBSS containing 2.5 μM fluo-3-acetoxylmethyl (Molecular Probes, USA) [Vandenberghe et al., 1990]. The cell suspension was then diluted 5 times with HBSS containing 1% FBS, incubated for 40 min at 37 degrees C., washed 3 times with assay buffer, and the cells were then suspended in the assay buffer at a concentration of 1×10^6/ml. Throughout the cell preparation, the cell suspensions were mixed gently.
Considering the reported synergistic interaction between EMF and mitogen (Walleczek and Liburdy, 1990), concanavalin-A (Con-A) (Seikagaku Co., Tokyo, Japan) and phytohemaglutinin (PHA) (SIGMA, MO, USA) were used.
Taking into account the results of the viability test for exposed murine splenocytes earlier assayed, we chose to use the optimum culture and exposure conditions (60 Hz, 6 μA/cm^2 EF) in carrying out the following five experiments: • (1) cells suspended in HEPES-buffered saline (BS)+1 mM CaCl2 were exposed to EF for a total of 40 min, and 12.5 μg/ml of Con-A was added after the first 8 min of exposure. The control groups consisted of EF-unexposed cells containing Con-A, and EF-exposed cells without Con-A. Percent [Ca^2+]c-high cells was checked at certain exposure points; • (2) cells in HEPES-BS+1 mM CaCl2 were exposed for a total of 12 min, and different concentrations (1 ng-12.5 μg/ml) of Con-A were added after the first 4 min of exposure. The control group was essentially the same as that of the experimental group but without EF-exposure; • (3) cells in HEPES-BS+1 mM CaCl2 were exposed for a total of 8 min, and 5 μg/ml of PHA was added after the first 4 min of exposure. The control groups consisted of EF-unexposed cells containing PHA, and EF-exposed cells without PHA; • (4) cells suspended in HEPES-BS without CaCl2 were exposed for a total of 12 min, and different concentrations (1 ng-5 μg/mil) of Con-A were added after the first 4 min of exposure. The control group was essentially the same as the experimental group but without EF exposure; and • (5) to evaluate the persistent effect of EF exposure, cells suspended in HEPES-BS+[…] were exposed for a total of 4 min, after which different concentrations (0.025-12.5 μg/ml) of Con-A were added, and the generation of [Ca^2+]c-high cells for the next 8 min without EF exposure was monitored with flow cytometry. The control was essentially the same as the experimental group but without any EF-exposure. Statistical Analysis

murine splenocytes = test: Cytoplasmic free Ca^2+ in murine splenocytes stimulated with ConA, fluo3 flow cytometry; assay type: cell-based, mice; conditions: ConA stimulation after 4 min exposure
Protocol: In order to determine the effect of EF on calcium ion concentration in murine splenocytes, specific EF field exposures of 60 Hz were applied to murine splenocytes. Mice were splenectomized under anesthesia. In a 60 mm dish, the spleen was injected with PBS (phosphate buffered saline including 0.083% NH4Cl). The cells were re-suspended and maintained in Hank's balanced salt solution (HBSS) (SIGMA, MO, USA), during examination for [Ca^2+ ]c, which was carried out within 4 hours after cell preparation. Cells were stored at 4° C. prior to use.
The application of a 60 Hz EF to splenocyte cells created applied current densities of 6, 20, 60, and 200 μA/cm^2. Splenocyte cells were exposed to these conditions for 4 minutes, after which exposure the splenocyte samples were stimulated with Concanavalin A (ConA). Following stimulation of splenocytes with ConA, cytoplasmic free Ca^2+ concentration was determined by fluo3 flow cytometry.

ovariectomized rats = conditions: restraint, after 60 min session, n=6
Protocol: Rats were restricted by wrapping each with a thin polycarbonate sheet and laying it over the lower electrode for 30 min.
To examine the effect of exposure to EF, we used normal and ovariectomized rats. Normal rats were divided into two groups of restraint alone and restraint plus EF.
Ovariectomies were performed 4 weeks before experimentation. EF exposure and restraint treatment applied in this study were as follows: Rats were exposed to 50 Hz, 17,500 V/m EF for a total of 1 hr. Rats were restrained with thin polycarbonate sheeting for the latter half of the EF exposure period. The experimental design in the control groups was the same as in the experimental group except for the absence of EF exposure. […]
Hematological analyses including red and white blood cell count, platelet count, hematocrit and hemoglobin levels were performed using an automatic multi-hemocytometer (Sysmec CC-78, Sysmec inc., Tokyo, Japan). Plasma glucose, lactate and pyruvate levels were measured with an automatic analyzer (7170 Hitachi, Hitachi Co. ltd., Tokyo, Japan). ACTH levels were measured by using an ACTH radio immunoassay kit (ACTH IRMA, MITSUBISHI CHEMICAL Co. Ltd.) and a gamma counter (Auto-Gamma 5530 Gamma Counting System, Packard Instrument Co. ltd.). Plasma corticosterone level was measured using a commercial kit (ImmuChem Double Antibody Corticosterone kit, ICN Biomedicals Inc.). […]

[1] = tested on: BALB 3T3/A31 fibroblast/embryo cells; test: Membrane potential of BALB 3T3 cells, DiBAC intensity; assay type: cell-based, murine; conditions: final concentration of 0.4 mM A23187
Protocol: A23187 is a monocarboxylic acid extracted from Streptomyces chartreusensis that acts as a mobile-carrier calcium ionophore. DiBAC is a fluorescent dye that enters the cell membrane when the membrane's potential changes. Thus, when the membranes of the BALB 3T3 cells depolarize, the DiBAC enters those membranes thereby increasing the intensity of the DiBAC signal (Y-axis) in the BALB 3T3 cells.
The changes in membrane potential were measured with flow cytometry. The methodology for the flow cytometry was as follows. Culture in DMEM was supplemented with 5% FCS 10 mM HEPES. It was then de-touched with 0.02% trypsin and 0.025% EDTA. […] It was then loaded with DiBAC4(3) of a final concentration of 200 nM. It was incubated at 37 degree C. for >5 min. Then the flow cytometry measurements were performed.

concanavalin-A [Con-A] was tested, and the “Time post-Con-A stimulation of decline in [Ca^2+]c-high cells” value (mouse splenocytes; 12.5 μg/ml Con-A) was “approximately 4 min”, the “Time to saturation point of Con-A-induced response after addition of the mitogen” value (mouse splenocytes; 12.5 μg/ml Con-A) was 5 to 8 min and the “Number of [Ca^2+]c-high cells” value (mouse splenocytes; 12.5 μg/ml Con-A, 1 mM CaCl2, EF-exposed and unexposed cell suspensions) was “increased significantly”. The “[Ca^2+]c-high cells compared to cells stimulated with 0.025 μg/ml of Con-A” value (mouse splenocytes; 3.125-12.5 μg/ml Con-A, unexposed or earlier exposed to EF for 4 min) was “significant increase”, the “Time post-Con-A stimulation at which sustained increase in [Ca^2+]c-high cells leveled off” value (mouse splenocytes; 3.125 and 6.25 μg/ml Con-A) was “about 8 min” and the “Con-A-dependent [Ca^2+]c rise” value (mouse splenocytes; Ca^2+-free cell condition, control and EF-exposed groups) was “negligible”. The “Calcium concentration in the splenocyte cells” value (murine splenocytes) was “increased”.
For `CN1C(=O)CN=C(c2ccccc2)c2cc(Cl)ccc21` [diazepam], the WBC counts (ovariectomized rats) was 85 ×10^2 cells/μl.
`CNc1ccc2oc(C[C@H]3O[C@@]4(CC[C@H]3C)O[C@H]([C@H](C)C(=O)c3ccc[nH]3)[C@H](C)C[C@H]4C)nc2c1C(=O)O` [A23187] was tested, and the “Membrane potential (DiBAC intensity)” value [1] was “alters the membrane potential”.
